Source: patent publication US20090221590A1, “SALT OF CD 80 ANTAGONIST” (MEDIGENE LIMITED, priority 2006, published 2009)
≈ marks a conversion by molar mass, not a printed value.

Assay: Solubility Assay (saturation, shaker 24 hours, supernatant analysed by HPLC)
Conditions: for Solubility (mg/ml) in ethanol: solvent ethanol; for Solubility (mg/ml) in ethanol / Solubility (mg/ml) in water: 25 deg C./60% relative humidity, 24 hours; for Solubility (mg/ml) in water: solvent water; for solubility at 24 h: 25 °C, thermodynamic from solid
Description: 10 mg of the test compound was weighed into a vial, and 1 ml of solvent was added. If the sample dissolved immediately, as evidenced by a formation of a clear solution, more of the test material was added and the vial sonicated for 15 mins. This procedure was repeated until no more test compound could be dissolved, as evidenced by formation of a suspension. The vial containing the suspension was then was sonicated for 15 mins, and placed on a shaker at 25 deg C./60% relative humidity for 24 hours. On removal from the shaker, the sample was centrifuged and the supernatant analysed by HPLC.

Row | Solubility (mg/ml) in ethanol [mg/mL] | Solubility (mg/ml) in water [mg/mL] | solubility at 24 h (ethanol, organic solvent or mixture) [µg/mL] | solubility at 24 h (water) [µg/mL] | aqueous solubility (in words) (water, qualitative statement) | Molecule
1 |  |  | 2100 (≈ 5.42 mM) | < 500 | poorly soluble in water | O=C(NCC(F)F)c1ccc(-n2[nH]c3c(nnc4c(F)cccc43)c2=O)cc1 [None (free acid), 4-(6-fluoro-3-oxo-1,3-dihydro-pyrazolo[4,3-c]cinnolin-2-yl)-N-(2,2-difluoro-ethyl)-benzamide]
2 | <5 | <5 |  |  |  | [K+] [Potassium]
3 | 7.1 | <5 |  |  |  | Sodium

Row | Molecule | Solubility (mg/ml) in ethanol [mg/mL] | Solubility (mg/ml) in water [mg/mL] | solubility at 24 h (ethanol, organic solvent or mixture) [µg/mL] | solubility at 24 h (water) [µg/mL] | aqueous solubility (in words) (water, qualitative statement)
4 | [Mg] [Magnesium] | <5 | <5 |  |  | 
